For experiment [1], the system named is HEK293 cells. Description: FBS-induced ERK activation in serum-starved HEK293 cells. Type of experiment: cell-based. The conditions noted are these: 2 h pre-treatment, 5% FBS induction, compared with KSR1 siRNA. The protocol: FIGS. 10A-10B show KSR1 knockdown and Compound 21 treatment similarly block FBS-induced ERK activation. In FIG. 10A, HEK293 cells were serum starved for 24 hours and simultaneously treated with two independent siRNAs against KSR1. siNTC was used as a scrambled control. After induction with 5% FBS, cells were harvested at […]. In FIG. 10B, HEK293 cells were similarly serum starved and pre-treated with Compound 21 for 2 h before induction. The cells were then induced with FBS as in FIG. 10A.

For experiment [2], the system named is ERK phosphorylation in HCT-116 cell line. Description: ERK phosphorylation dose response to trametinib, HCT-116. It counts as cell-based. The conditions noted are these: HCT-116 (Ras-mutant).
Experiment [3] deals with ERK phosphorylation in SK-MEL-239 cell line. Description: ERK phosphorylation dose response to trametinib, SK-MEL-239. It counts as cell-based. The conditions noted are these: SK-MEL-239 (RAF-mutant).
In experiment [4] the test system is KSR-stimulated MEK and ERK phosphorylation. The experiment can be described thus: Cell-based reconstitution system monitoring KSR-driven MAPK signaling. The source says: To assess the biological function of lead compounds as Ras-MAPK pathway antagonists, a simplified cell-based reconstitution system was developed to directly monitor KSR-driven MAPK signaling. […] Based on similarity in phenotype and direct-binding activity, Compound 21 was identified as a small molecule mimic of KSR alleles that suppress oncogenic Ras mutations.

Experiment [5] has as its target KSR2^A690F:MEK1 phosphorylation by B-RAF (Homo sapiens (Human), UniProt Q6VAB6, A690F). Description: RAF phosphorylation assay, KSR2^A690F:MEK1 substrate. Type of experiment: biochemical. The conditions noted are these: 10 μM compound. The protocol: FIGS. 9A-9C show phosphorylation of MEK1, KSR2:MEK1, and KSR2^A690F:MEK1 by B-RAF over time in the presence of Compound 21. Relative pMEK was determined by quantification of band intensities from western blots using Image Lab Software 4.1.
In particular, a variant of B-RAF was identified that could be expressed in high yield from E. Coli and which also retained near wild-type levels of kinase activity towards MEK1. For in vitro kinase assays, indicated concentrations of B-RAF and 1 μM KSR2-MEK1 or 1 μM MEK1 proteins were pre-incubated with 10 μM of indicated compounds for 15 minutes in buffer containing 25 mM Tris pH 7.5, 150 mM NaCl, 10 mM MgCl2, and 2% DMSO. Kinase reactions were initiated by the addition of 100 μM ATP and halted at the indicated times by the addition of 6×SDS loading dye. Samples were examined by western blotting as described for the ATP-biotin experiments and by probing overnight with a MEK1/2 Ser218-Ser222 phospho-specific antibody (Cell signaling). Membranes were visualized using enhanced chemiluminescence on a Biodoc (Biorad) for quantification purposes.

In experiment [6] the test system is HCT-116. Description: Cell viability, combination with trametinib, HCT-116. Type of experiment: cell-based. As to the method:
High BLISS scores indicate statistically significant synergy between Compound 21 and trametinib specifically within K-Ras mutant cells. Numbers listed within synergy matrices, representing % growth inhibition relative to DMSO controls, are mean of two replicates. Insets highlight dose responses of trametinib in the absence or presence of 1 μM Compound 21.
FIGS. 13A-13D show data validating that Compound 21 is synergistic with trametinib in Ras-mutant cells. […] FIGS. 13C-13D show log of the combination index (CI) graphs of Compound 21 in combination with trametinib in HCT-116 vs. SK-MEL-239 cells as compared to the fractional effect (Fa).
The viability ratio represented the viability observed for treated (inhibitors) relative to controls (DMSO).

With `COc1cc2ncnc(Nc3ccc(Oc4ccccc4)cc3C)c2cc1OC` [Compound 21, 6,7-Dimethoxy-N-(2-methyl-4-phenoxyphenyl)quinazolin-4-amine 2,2,2-trifluoroacetate], in experiment [1], the “effect on FBS-induced ERK activation” value is reported as “mimic the effects of RNAi based knockdown of KSR1”. Further, the “enhancement in the IC90 of trametinib on ERK phosphorylation” value in experiment [2] is reported as 2 fold; in experiment [3], “not”. The “suppression of KSR-stimulated MEK and ERK phosphorylation” value in experiment [4] (KSR expression-dependent MAPK signaling) is listed as “suppressed”. For the same compound, the “suppression of KSR-stimulated MAPK signaling with active site mutant KSR^A690F” value in experiment [4] (KSR^A690F mutant) is recorded as “greatly diminished the activity”. Moreover, the “MEK phosphorylation by RAF, KSR2^A690F mutant” value in experiment [5] was “essentially inactive”. Further, in experiment [6] (HCT-116 (Ras-mutant)), the “shift of cell viability dose response to trametinib” value is on record as “shifted the cell viability dose response to trametinib”. In experiment [6] (HCT-116, negative log CI over broad Fa range), the “combination index (CI) with trametinib” value is “strong synergy”.

Values taken from patent US10548897B2, “KSR antagonists” (Icahn School of Medicine at Mount Sinai, priority 2015, dated 2020).
